Experimental data from US20260315475A1 (priority 2023, published 2026).
Structures can show the parent of a compound that is named as a salt. Blank lines part the entries; values can stand above or below the molecule they belong to.

Legend:
[1] = Phase I single-dose open-label pharmacokinetic study in participants with normal hepatic function and varying degrees of hepatic impairment; type: in vivo, human; settings: for MRAUC (metabolite/parent ratio based on AUC): geometric mean (CV %); for tlast: plasma, single oral 200 mg belumosudil, fed, median
Text: The primary objective was to assess the pharmacokinetic (PK) of belumosudil following a single oral dose of belumosudil in participants with mild, moderate, or severe hepatic impairment compared to healthy participants with normal hepatic function.
The secondary objectives were: to evaluate the safety and tolerability of a single oral dose of belumosudil in participants with mild, moderate, or severe hepatic impairment, and in healthy participants with normal hepatic function; to assess the PK of the belumosudil metabolites following a single oral dose of belumosudil in participants with mild, moderate, or severe hepatic impairment compared to healthy participants with normal hepatic function.
Approximately 38 participants were to be enrolled into the following groups based on their hepatic function, as determined according to the Child-Pugh system. • Group 1 (n=approximately 16): matched healthy participants with normal hepatic function • Group 2 (n=8): participants with mild hepatic impairment (Child-Pugh Class A [score of 5 or 6]) • Group 3 (n=8): participants with moderate hepatic impairment (Child-Pugh Class B [score of 7 to 9]) • Group 4 (n=6): participants with severe hepatic impairment (Child-Pugh Class C [score of 10 to 14]).
Healthy participants with normal hepatic function (Group 1) were demographically matched by age (±10 years), sex, and body mass index (BMI; +20%) to participants with hepatic impairment (Groups 2, 3, and 4). Participants with normal hepatic function could be matched to multiple participants across the 3 hepatic impairment groups (mild, moderate, and severe), but could not be matched to more than 1 participant within the same impairment group.
Pharmacokinetic blood samples were obtained from predose until 48 hours postdose (Day 3).
Summary tables, mean (+standard deviation [SD]) figures, overlaying individual figures, and individual figures by hepatic function and time postdose were provided for plasma PK concentrations. Summary tables by hepatic function were provided for all PK parameters, with the exception of terminal phase regression-related diagnostic parameters (λz, λz upper, λ z lower, λz number of points, R2-adj, and % AUCextrap), which were listed only.
All other PK parameters were regarded as secondary and were not participant to inferential statistical analysis.

[2] = cited from earlier work
[3] = cited from earlier work; remark: listed apart in the source
CYP3A4 = settings: in vitro, high concentrations; cited from earlier work
[4] = healthy volunteers, per label; cited from earlier work

- MRAUC (metabolite/parent ratio based on AUC) ([1]; mild hepatic impairment): 0.135 (73.8%)
- MRAUC (metabolite/parent ratio based on AUC) ([1]; mild hepatic impairment, listed as KD025 m2): 0.135 (73.8) [8]
- MRAUC (metabolite/parent ratio based on AUC) ([1]; moderate hepatic impairment): 0.318 (70.5%)
- MRAUC (metabolite/parent ratio based on AUC) ([1]; moderate hepatic impairment, listed as KD025 m2): 0.318 (70.5) [7]
- MRAUC (metabolite/parent ratio based on AUC) ([1]; normal hepatic function): 0.103 (68.8%)
- MRAUC (metabolite/parent ratio based on AUC) ([1]; normal hepatic function, listed as KD025 m2): 0.103 (68.8) [14]
- tlast ([1]; mild hepatic impairment): 23.9 h
- tlast ([1]; moderate hepatic impairment): 48.0 h
- tlast ([1]; normal hepatic function): 14.0 h
- tlast ([1]; severe hepatic impairment): 48.0 h
- MRAUC (metabolite/parent ratio based on AUC) ([1]; severe hepatic impairment): 0.680 (63.5%)
- MRAUC (metabolite/parent ratio based on AUC) ([1]; severe hepatic impairment, listed as KD025 m2): 0.680 (63.5) [4]
SMILES: O=C(O)COc1cccc(-c2nc(Nc3ccc4[nH]ncc4c3)c3ccccc3n2)c1 [KD025m2]

SMILES: CC(C)NC(=O)COc1cccc(-c2nc(Nc3ccc4[nH]ncc4c3)c3ccccc3n2)c1 [belumosudil mesylate, 2-{3-[4-(1H-indazol-5-ylamino)-2-quinazolinyl]phenoxy}-N-(propan-2-yl) acetamide methanesulfonate (1:1)]
- solubility in DMF ([2]; DMF): slightly soluble
- solubility in DMSO ([2]; DMSO): soluble
- solubility in methanol ([2]; methanol): slightly soluble
- solubility in water ([2]; water): practically insoluble

SMILES: C=CC(=O)N1CCC[C@@H](n2nc(-c3ccc(Oc4ccccc4)cc3)c3c(N)ncnc32)C1 [ibrutinib]
- overall response rate (ORR) ([3]; cGVHD patients with >25% body surface area erythematous rash or NIH mouth score >4): 67%
- discontinuation rate because of TEAEs ([3]; cGVHD patients): 43%

SMILES: CO[C@H]1/C=C/O[C@@]2(C)Oc3c(C)c(O)c4c(O)c(c5c(nc6cc(C)ccn65)c4c3C2=O)NC(=O)/C(C)=C\C=C\[C@H](C)[C@H](O)[C@@H](C)[C@@H](O)[C@@H](C)[C@H](OC(C)=O)[C@@H]1C [rifaximin]
- CYP3A4 induction (CYP3A4): CYP3A4 inducer at high concentrations
- drug-drug interaction (DDI) effects [4]: not shown to have drug-drug interaction (DDI) effects
